Results published in patent US5294611A, “Angiotensin II receptor blocking 2,3,6 substituted quinazolinones” (American Cyanamid Company, priority 1993, dated 1994).
Read-outs that look alike come from different tables or passages of the source.

System: Angiotensin II (AII) vasopressor response
Assay: AII Challenge: antagonism of angiotensin II vasopressor response in conscious spontaneously hypertensive rats
Format: in vivo, rat (male okamoto-Aoki SHR)
Details: for inhibition in vivo at 3 mg/kg / inhibition in vivo at 5 mg/kg: Rattus norvegicus, read-out: Inhibition; for inhibition in vivo at 3 mg/kg: iv; for inhibition in vivo at 3 mg/kg / inhibition in vivo at 5 mg/kg / Average Change: SHR n=2; for inhibition in vivo at 5 mg/kg: po; for Change: single SHR
From the text: Conscious Male okamoto-Aoki SHR, 16-20 weeks old, weighing approximately 330 g are purchased from Charles River Labs (Wilmington, Mass.). Conscious rats are restrained in a supine position with elastic tape. The area at the base of the tail is locally anesthetized by subcutaneous infiltration with 2% procaine. […] The cannula is secured, heparinized (1,000 I.U./ml), sealed and the wound is closed. The animals are placed in plastic restraining cages in an upright position. The cannula is attached to a Statham P23Db pressure transducer, and pulsatile blood pressure is recorded to 10-15 minutes with a Gould Brush recorder. […] Angiotensin II (human sequence, Sigma Chem. Co., St. Louis, Mo.) of 0.05 and 0.1 ug/kg i.v. is injected into all rats (predosing response). Then a test compound, vehicle or a known angiotensin II antagonist is administered i.v., i.p. or orally to each set of rats. […] The vasopressor response of angiotensin II is measured for the increase in systolic blood pressure in mmHg.

[1] = 3 mg/kg I.V., AII 0.05 mcg/kg IV, 240 min post dose
[2] = 3 mg/kg I.V., AII 0.1 mcg/kg IV, 300 min post dose
[3] = 5 mg/kg P.O., AII 0.1 mcg/kg IV, 300 min post dose

With `CCCCc1nc2ccc([C@H]3[C@@H]4C(=O)OC[C@@H]4ON3C)cc2c(=O)n1Cc1ccc(-c2ccccc2-c2nnn[nH]2)cc1` (relative stereo) [Example 53] as the compound, how does the inhibition in vivo at 3 mg/kg (0.5 h, 3 mg/kg I.V., AII 0.05 mcg/kg IV, 30 min post dose) read?
Its inhibition in vivo at 3 mg/kg is 74%.

What about the inhibition in vivo at 3 mg/kg (0.5 h, 3 mg/kg I.V., AII 0.1 mcg/kg IV, 30 min post dose) of the same compound?
The inhibition in vivo at 3 mg/kg was 81%.

And the inhibition in vivo at 3 mg/kg (1 h, 3 mg/kg I.V., AII 0.05 mcg/kg IV, 60 min post dose)?
Its inhibition in vivo at 3 mg/kg is 99%.

What about the inhibition in vivo at 3 mg/kg (1 h, 3 mg/kg I.V., AII 0.1 mcg/kg IV, 60 min post dose) of the same compound?
The inhibition in vivo at 3 mg/kg was 95%.

And the inhibition in vivo at 3 mg/kg (2 h, 3 mg/kg I.V., AII 0.05 mcg/kg IV, 120 min post dose)?
The inhibition in vivo at 3 mg/kg was 42%.

What about the inhibition in vivo at 3 mg/kg (2 h, 3 mg/kg I.V., AII 0.1 mcg/kg IV, 120 min post dose) of the same compound?
Its inhibition in vivo at 3 mg/kg is 64%.

And the inhibition in vivo at 3 mg/kg (3 h, 3 mg/kg I.V., AII 0.05 mcg/kg IV, 180 min post dose)?
Its inhibition in vivo at 3 mg/kg is 77%.

What about the inhibition in vivo at 3 mg/kg (3 h, 3 mg/kg I.V., AII 0.1 mcg/kg IV, 180 min post dose) of the same compound?
The inhibition in vivo at 3 mg/kg was 64%.

What about the inhibition in vivo at 3 mg/kg (4 h, 3 mg/kg I.V., AII 0.05 mcg/kg IV, 240 min post dose) of the same compound?
The inhibition in vivo at 3 mg/kg was 36%.

And the inhibition in vivo at 3 mg/kg (4 h, 3 mg/kg I.V., AII 0.1 mcg/kg IV, 240 min post dose)?
Its inhibition in vivo at 3 mg/kg is 44%.

And the inhibition in vivo at 3 mg/kg (5 h, 3 mg/kg I.V., AII 0.05 mcg/kg IV, 300 min post dose)?
The inhibition in vivo at 3 mg/kg was 49%.

And the inhibition in vivo at 3 mg/kg (5 h, 3 mg/kg I.V., AII 0.1 mcg/kg IV, 300 min post dose)?
Its inhibition in vivo at 3 mg/kg is 39%.

What about the inhibition in vivo at 3 mg/kg ([…], 3 mg/kg I.V., AII 0.05 mcg/kg IV, 90 min post dose) of the same compound?
The inhibition in vivo at 3 mg/kg was 68%.

And the inhibition in vivo at 3 mg/kg ([…], 3 mg/kg I.V., AII 0.1 mcg/kg IV, 90 min post dose)?
Its inhibition in vivo at 3 mg/kg is 66%.

And the inhibition in vivo at 5 mg/kg (0.5 h, 5 mg/kg P.O., AII 0.05 mcg/kg IV, 30 min post dose)?
The inhibition in vivo at 5 mg/kg was 75%.

And the inhibition in vivo at 5 mg/kg (0.5 h, 5 mg/kg P.O., AII 0.1 mcg/kg IV, 30 min post dose)?
The inhibition in vivo at 5 mg/kg was 59%.

And the inhibition in vivo at 5 mg/kg (1 h, 5 mg/kg P.O., AII 0.05 mcg/kg IV, 60 min post dose)?
The inhibition in vivo at 5 mg/kg was 81%.

And the inhibition in vivo at 5 mg/kg (1 h, 5 mg/kg P.O., AII 0.1 mcg/kg IV, 60 min post dose)?
The inhibition in vivo at 5 mg/kg was 53%.

What about the inhibition in vivo at 5 mg/kg (2 h, 5 mg/kg P.O., AII 0.05 mcg/kg IV, 120 min post dose) of the same compound?
Its inhibition in vivo at 5 mg/kg is 98%.

What about the inhibition in vivo at 5 mg/kg (2 h, 5 mg/kg P.O., AII 0.1 mcg/kg IV, 120 min post dose) of the same compound?
Its inhibition in vivo at 5 mg/kg is 74%.

What about the inhibition in vivo at 5 mg/kg (3 h, 5 mg/kg P.O., AII 0.05 mcg/kg IV, 180 min post dose) of the same compound?
Its inhibition in vivo at 5 mg/kg is 96%.

And the inhibition in vivo at 5 mg/kg (3 h, 5 mg/kg P.O., AII 0.1 mcg/kg IV, 180 min post dose)?
Its inhibition in vivo at 5 mg/kg is 79%.

What about the inhibition in vivo at 5 mg/kg (4 h, 5 mg/kg P.O., AII 0.05 mcg/kg IV, 240 min post dose) of the same compound?
Its inhibition in vivo at 5 mg/kg is 69%.

What about the inhibition in vivo at 5 mg/kg (4 h, 5 mg/kg P.O., AII 0.1 mcg/kg IV, 240 min post dose) of the same compound?
The inhibition in vivo at 5 mg/kg was 71%.

What about the inhibition in vivo at 5 mg/kg (5 h, 5 mg/kg P.O., AII 0.05 mcg/kg IV, 300 min post dose) of the same compound?
The inhibition in vivo at 5 mg/kg was 84%.

And the inhibition in vivo at 5 mg/kg (5 h, 5 mg/kg P.O., AII 0.1 mcg/kg IV, 300 min post dose)?
The inhibition in vivo at 5 mg/kg was 53%.

And the inhibition in vivo at 5 mg/kg ([…], 5 mg/kg P.O., AII 0.05 mcg/kg IV, 90 min post dose)?
Its inhibition in vivo at 5 mg/kg is 88%.

What about the inhibition in vivo at 5 mg/kg ([…], 5 mg/kg P.O., AII 0.1 mcg/kg IV, 90 min post dose) of the same compound?
The inhibition in vivo at 5 mg/kg was 76%.

And the “Average Change” value (3 mg/kg I.V., AII 0.05 mcg/kg IV, 30 min post dose)?
Its value is 10 mmHg.

What about the “Average Change” value (3 mg/kg I.V., AII 0.05 mcg/kg IV, 60 min post dose) of the same compound?
The value was 0.5 mmHg.

What about the “Average Change” value (3 mg/kg I.V., AII 0.05 mcg/kg IV, 90 min post dose) of the same compound?
The value was 12.5 mmHg.

What about the “Average Change” value (3 mg/kg I.V., AII 0.05 mcg/kg IV, 120 min post dose) of the same compound?
The value was 22.5 mmHg.

And the “Average Change” value (3 mg/kg I.V., AII 0.05 mcg/kg IV, 180 min post dose)?
The value was 9 mmHg.

What about the “Average Change” value [1] of the same compound?
The value was 25 mmHg.

And the “Average Change” value (3 mg/kg I.V., AII 0.1 mcg/kg IV, 30 min post dose)?
Its value is 9.5 mmHg.

What about the “Average Change” value (3 mg/kg I.V., AII 0.1 mcg/kg IV, 60 min post dose) of the same compound?
Its value is 2.5 mmHg.

And the “Average Change” value (3 mg/kg I.V., AII 0.1 mcg/kg IV, 90 min post dose)?
The value was 16.5 mmHg.

And the “Average Change” value (3 mg/kg I.V., AII 0.1 mcg/kg IV, 120 min post dose)?
The value was 17.5 mmHg.

What about the “Average Change” value (3 mg/kg I.V., AII 0.1 mcg/kg IV, 180 min post dose) of the same compound?
The value was 17.5 mmHg.

And the “Average Change” value (3 mg/kg I.V., AII 0.1 mcg/kg IV, 240 min post dose)?
Its value is 27.5 mmHg.

And the “Average Change” value [2]?
The value was 30 mmHg.

What about the “Average Change” value (5 mg/kg P.O., AII 0.05 mcg/kg IV, 30 min post dose) of the same compound?
Its value is 10 mmHg.

What about the “Average Change” value (5 mg/kg P.O., AII 0.05 mcg/kg IV, 60 min post dose) of the same compound?
Its value is 7.5 mmHg.

And the “Average Change” value (5 mg/kg P.O., AII 0.05 mcg/kg IV, 90 min post dose)?
The value was 5 mmHg.

And the “Average Change” value (5 mg/kg P.O., AII 0.05 mcg/kg IV, 120 min post dose)?
The value was 1 mmHg.

And the “Average Change” value (5 mg/kg P.O., AII 0.05 mcg/kg IV, 180 min post dose)?
Its value is 1.5 mmHg.

What about the “Average Change” value (5 mg/kg P.O., AII 0.05 mcg/kg IV, 240 min post dose) of the same compound?
Its value is 12.5 mmHg.

What about the “Average Change” value (5 mg/kg P.O., AII 0.05 mcg/kg IV, 300 min post dose) of the same compound?
Its value is 6.5 mmHg.

What about the “Average Change” value (5 mg/kg P.O., AII 0.1 mcg/kg IV, 30 min post dose) of the same compound?
Its value is 17.5 mmHg.

What about the “Average Change” value (5 mg/kg P.O., AII 0.1 mcg/kg IV, 60 min post dose) of the same compound?
Its value is 20 mmHg.

What about the “Average Change” value (5 mg/kg P.O., AII 0.1 mcg/kg IV, 90 min post dose) of the same compound?
Its value is 10 mmHg.

What about the “Average Change” value (5 mg/kg P.O., AII 0.1 mcg/kg IV, 120 min post dose) of the same compound?
Its value is 11 mmHg.

And the “Average Change” value (5 mg/kg P.O., AII 0.1 mcg/kg IV, 180 min post dose)?
The value was 9 mmHg.

And the “Average Change” value (5 mg/kg P.O., AII 0.1 mcg/kg IV, 240 min post dose)?
The value was 12.5 mmHg.

What about the “Average Change” value [3] of the same compound?
Its value is 20 mmHg.

What about the Change [1] of the same compound?
The Change was 25 mmHg.

And the Change (3 mg/kg I.V., AII 0.05 mcg/kg IV, 300 min post dose)?
Its Change is 20 mmHg.

And the Change [2]?
The Change was 30 mmHg.

And the Change [3]?
Its Change is 20 mmHg.
